From PMC8705394, “Acquired Drug Resistance Enhances Imidazoquinoline Efflux by P-Glycoprotein” (Pharmaceuticals, 2021) come the findings set out here.

Each structure is given as a SMILES string.

Experiment [1] deals with T1, P-glycoprotein 1 (P-gp, hMDR1) (Homo sapiens, UniProt P08183).
T1 construct: gene ABCB1
Briefly: biochemical.

The target of experiment [2] is T1, P-glycoprotein 1 (P-gp, hMDR1). Briefly: vanadate-sensitive ATPase activation in P-gp membrane vesicles (PREDEASY kit); supported by Rh123 competition in MDR cells.

For orientation: Kd means the free concentration of one partner at which half of the binding sites on the other are occupied at equilibrium, for simple one-to-one binding.

T1 sequence (P08183 whole entry): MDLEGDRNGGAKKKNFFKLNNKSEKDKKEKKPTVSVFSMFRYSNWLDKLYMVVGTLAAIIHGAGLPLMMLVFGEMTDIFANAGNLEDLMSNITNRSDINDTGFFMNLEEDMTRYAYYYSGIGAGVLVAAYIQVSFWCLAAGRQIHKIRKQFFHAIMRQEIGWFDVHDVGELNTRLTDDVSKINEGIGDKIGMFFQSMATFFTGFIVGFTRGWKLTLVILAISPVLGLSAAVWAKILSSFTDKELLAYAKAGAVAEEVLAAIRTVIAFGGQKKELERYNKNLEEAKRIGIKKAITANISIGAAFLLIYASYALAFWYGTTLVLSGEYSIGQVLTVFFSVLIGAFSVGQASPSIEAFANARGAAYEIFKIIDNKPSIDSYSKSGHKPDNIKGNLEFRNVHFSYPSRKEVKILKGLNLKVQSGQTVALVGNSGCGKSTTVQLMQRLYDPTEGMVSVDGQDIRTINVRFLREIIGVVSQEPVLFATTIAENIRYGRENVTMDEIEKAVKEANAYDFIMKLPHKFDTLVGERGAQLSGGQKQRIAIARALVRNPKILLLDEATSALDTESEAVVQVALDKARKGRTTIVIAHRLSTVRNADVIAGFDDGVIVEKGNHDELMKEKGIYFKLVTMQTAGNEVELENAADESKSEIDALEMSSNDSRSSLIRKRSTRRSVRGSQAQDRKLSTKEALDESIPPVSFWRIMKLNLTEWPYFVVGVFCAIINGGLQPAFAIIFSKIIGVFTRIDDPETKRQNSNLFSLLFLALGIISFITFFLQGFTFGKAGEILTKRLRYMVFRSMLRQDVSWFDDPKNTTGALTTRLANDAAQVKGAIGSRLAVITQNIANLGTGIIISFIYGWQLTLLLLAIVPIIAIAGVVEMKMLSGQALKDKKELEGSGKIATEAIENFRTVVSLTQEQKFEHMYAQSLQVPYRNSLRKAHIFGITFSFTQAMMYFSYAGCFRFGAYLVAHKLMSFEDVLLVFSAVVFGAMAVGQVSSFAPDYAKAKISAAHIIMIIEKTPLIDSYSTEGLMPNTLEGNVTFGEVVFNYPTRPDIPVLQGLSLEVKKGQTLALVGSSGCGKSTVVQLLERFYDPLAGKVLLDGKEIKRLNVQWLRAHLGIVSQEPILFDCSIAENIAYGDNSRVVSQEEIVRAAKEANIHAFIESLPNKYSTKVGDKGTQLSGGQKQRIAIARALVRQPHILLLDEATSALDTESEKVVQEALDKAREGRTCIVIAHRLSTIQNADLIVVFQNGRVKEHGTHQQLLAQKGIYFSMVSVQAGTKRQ

In the case of `CCOCc1nc2c(N)nc3ccccc3c2n1CC(C)(C)O` [RSQ, Resiquimod], the Kd in experiment [1] is 24.4 µM. In the case of `CC(C)Cn1cnc2c(N)nc3ccccc3c21` [IMQ, Imiquimod], the Kd in experiment [2] was determined as 7.66 µM.
